Consider two molecules from patent publication US11350582B2, “Plant varieties by application of endocides” (Stephen F. Austin State University, priority 2015, dated 2022).

SMILES strings stand for the structures. Read-outs that look alike come from different tables or passages of the source. Some results are limits rather than exact numbers.

Assay [1] has as its system Salvinia molesta. Briefly: Greenhouse spray test on giant salvinia, living biomass. The settings on record: for type of new growth / decrease of living biomass weight compared to the water control: 1% concentration; for type of new growth: compound alone; for decrease of living biomass weight compared to the water control: nine days after the treatment; for Living Biomass (mean ± s.d.): 10 mL spray on three type III plants per container, day nine. The format is in vivo. Here is the method: General Experimental Procedure: Observations of giant salvinia growth in a greenhouse were performed under 28 different treatment conditions and control conditions with NANOPURE™ water or 0.5% DYNE-AMIC® (methyl esters of C16-C18 fatty acids, polyalkyleneoxide modified polydimethylsiloxane, and alkylphenol ethoxylate 99%, (Helena, Collierville, Tenn., United States)) (v:v).
Materials—4-hydroxybenzoic acid (>95%, HPLC analysis) and 3,4-dihydroxybenzoic acid (>95%) were isolated from S. molesta matter using the method as described in (Li, Wang et al. 2013). Ethylparaben (>99%) was purchased from a commercial source. Each of 4-hydroxybenzoic acid, 3,4-dihydroxybenzoic acid, and ethylparaben were prepared as 50 mL experimental solutions with NANOPURE™ water at the concentration of 0.5, 1.0, 1.5, and 2.0%, respectively. 0.5, 1.0, 1.5, and 2.0% 4-hydroxybenzoic acid, 3,4-dihydroxybenzoic acid, and ethylparaben with 0.5% surfactant DYNE-AMIC® was also prepared as 50 mL experimental solutions with NANOPURE™ water. Mixtures of 4-hydroxybenzoic acid with 3,4-dihydroxybenzoic acid (2:1, w:w) were prepared as 50 mL experimental solutions with NANOPURE™ water at the total concentration of 0.5, 1.0, and 1.5%, respectively. 3,4-dihydroxybenzoic acid was mixed with ethylparaben (2:1, w:w) and prepared as 50 mL experimental solution with NANOPURE™ water at the total concentration of 0.5, 1.0, and 1.5%, respectively.
Bioassay—For each treatment, a total of nine healthy and untreated living plants of S. molesta (type III, the biomass of three plants weighs approximately 10 g) were cultured in tap water in three plastic containers severing as three replications (14×15 cm, 0.68 L) with three plants each in a greenhouse (30° C. during the day time and 20° C. at night). The three plants in each of the three containers per treatment were sprayed with 10 mL NANOPURE™ water, 0.5% DYNE-AMIC®, or the experimental solution. Plant growth and survival status were documented and photographed in each treatment on day nine after the treatment. Pairwise comparisons for all treatments (including Control) in living biomass were made using Tukey test at alpha=0.05, which was done using SAS (SAS 9.4).

For assay [2], the system named is S. molesta. The assay is described as follows: Phytotoxic analysis by pipet application on upper or lower leaf surface. The format is in vivo, Salvinia molesta. As to conditions: Salvinia molesta, topical, 72 h. On the procedure:
General Experimental Procedure: 4-Hydroxybenzoic and 3,4-dihydroxybenzoic acids and 14 of their analogs were purchased commercially. Each of 16 compounds were prepared as 5 mL experimental solutions with NANOPURE™ water at 1% concentration. A total of 102 healthy and untreated living type III plants of S. molesta (approximately 10 g in fresh weight each) were cultured and tested in 17 plastic containers (23×23 cm, 2.37 L) with six plants in each container in a greenhouse (30° C. during the day time and 20° C. at night). The first container served as the controls without any treatment, the plants in each of the other 16 containers were treated by one of the 16 testing compounds, respectively. The plants in each container were randomly classified into two groups evenly. For each plant in the first group, 10 μL of 1% experimental solution was applied by pipet on the upper surface of each blade of the six pairs of large floating leaves close to the terminal bud. For each plant in the second group, 10 μL of 1% experimental solution was applied by pipet on the lower surface of each blade of the six pairs of large floating leaves close to the terminal bud. The leaf surfaces were examined for damage and analyzed 72 hrs after the treatments.

Assay [3] concerns Azolla caroliniana. The assay is described as follows: Greenhouse spray test on Carolina mosquito fern. The format is in vivo. The settings on record: 0.5% concentration; 10 mL spray; fifth day. Here is the method: 4-Hydroxybenzoic and 3,4-dihydroxybenzoic acids were also tested against Carolina mosquito fern (Azolla caroliniana Willd.) (family Azollaceae). Six containers (14×15 cm, 0.68 L) with full cover of A. caroliniana were included in the tests: two without any treatments as controls, two were sprayed with 10 mL 0.5% 4-hydroxybenzoic acid each, and the others were sprayed with 10 mL 0.5% 3,4-dihydroxybenzoic acid each. Plant growth and survival status were documented and photographed in each treatment on the fifth day after the treatment.

Assay [4] relates to common species associate with S. molesta or species growing in nearby habitats. The assay is described as follows: Field selectivity test on associated plant species (Example 16). The format is in vivo. As to conditions: 0.5% with 0.25% soap; after two foliar applications. On the procedure: General Experimental Procedure: Field experiments were conducted in an isolated pond in east Texas, United States. The pond was infested with type III S. molesta plants that formed dense mats along the edge and type I and II plants floating on the water surface. 4-hydroxybenzoic and 3,4-dihydroxybenzoic acids were purchased from a commercial source (99.9%, HPLC analysis). 500 m^2 of S. molesta was treated with 50 L 0.5% 4-hydroxybenzoic acid mixed with 0.25% DAWN® dish soap and 500 m^2 of S. molesta was treated with 50 L 0.5% 3,4-dihydroxybenzoic acid mixed with 0.25% DAWN® dish soap by Solo 433 motorized backpack sprayer. Plant growth and survival status were documented through photographs and the living biomass was sampled 48 hrs after each treatment. The experimental species for selectivity tests were mainly common species associate with S. molesta or species growing in nearby habitats. […]

For assay [5], the system named is S. molesta. The assay is described as follows: Field test in an isolated pond, foliar spray with DAWN dish soap (Example 16). The format is in vivo, Salvinia molesta. As to conditions: 0.5% with 0.25% soap; for small S. molesta plants dead: 48 h after the first treatment; for new growths induced (small plants): after first treatment; for fate of newly emerged type I plants: after the second treatments; for type III S. molesta plants on the top layer of the dense mats killed or severely injured: within 48 hrs of the first treatment. On the procedure:
General Experimental Procedure: Field experiments were conducted in an isolated pond in east Texas, United States. The pond was infested with type III S. molesta plants that formed dense mats along the edge and type I and II plants floating on the water surface. 4-hydroxybenzoic and 3,4-dihydroxybenzoic acids were purchased from a commercial source (99.9%, HPLC analysis). 500 m^2 of S. molesta was treated with 50 L 0.5% 4-hydroxybenzoic acid mixed with 0.25% DAWN® dish soap and 500 m^2 of S. molesta was treated with 50 L 0.5% 3,4-dihydroxybenzoic acid mixed with 0.25% DAWN® dish soap by Solo 433 motorized backpack sprayer. Plant growth and survival status were documented through photographs and the living biomass was sampled 48 hrs after each treatment. The experimental species for selectivity tests were mainly common species associate with S. molesta or species growing in nearby habitats. The species included one fern species, Carolina mosquito fern (A. caroliniana), and 11 herbaceous invasive aquatic species of angiosperms (flowering plants), namely, water hyacinth (Eichharnia crassipes (Mart.) Solms) of the family Pontederiaceae, least duckweed (Lemna minuta) and Brazilian watermeal (Wolffia brasillensis Weddell) of the family Araceae, and hydrilla (Hydrilla verticillata (L.f.) Royle) of the family Hydrocharitaceae, alligator weed (Alternanthera philoxeroides Griseb.) of the family Amaranthaceae, knotweed (Polygonum sp.) and redvine (Brunnichia ovata Walter) of the family Polygonaceae, water primrose (Ludwigia sp.) of the family Onagraceae, cattail (Typha latifolia L.) of the family Typhaceae, proliferating bulrush (Isolepis prolifera (Rottb.) R. Br.) of the family Cyperaceae, and coontail (Ceratophyllum demersum L.) of the family Ceratophyllaceae and four woody plants, namely, baldcypress (Taxodium distichum (L.) Rich.) of the family Cupressaceae, loblolly pine (Pinus taeda L.) of the family Pinaceae, Chinese tallow (T. sebifera), and buttonbush (Cephalanthus occidentalis L.) of the family Rubiaceae. At least 30 plants for each of 12 herbaceous species and three seedlings of each of the four woody species were sprayed during the treatment of S. molesta.

Assay [6] concerns dihuang. The settings on record: in vivo; cited from earlier work.

With `O=C(O)c1ccc(O)c(O)c1` [3,4-dihydroxybenzoic acid], in assay [1], the “type of new growth” value is given as “type I only” and the “decrease of living biomass weight compared to the water control” value amounted to 76.5%. Further, in assay [1] (total concentration 0.5%), the “Living Biomass (mean ± s.d.)” value turned out to be 17.1 g. For the same molecule, the “Living Biomass (mean ± s.d.)” value in assay [1] (total concentration 1.0%) was determined as 9.2 g. In addition, the “Living Biomass (mean ± s.d.)” value in assay [1] (total concentration 1.5%) is 14.3 g. The “Living Biomass (mean ± s.d.)” value in assay [1] (total concentration 2.0%) came out at 5.8 g. Further, in assay [2] (read-out: Inhibition (%) Lower leaf Application, 10 μL of 1% solution per blade, lower surface), the pest or weed control at 1 % worked out at 72.2%. In assay [2] (read-out: Inhibition (%) Upper leaf Application, 10 μL of 1% solution per blade, upper surface), the pest or weed control at 1 % was over 85%. Also, in assay [3], the A. caroliniana eliminated is given as 100%. For the same molecule, the “damage to other species tested for selectivity” value in assay [4] was “none of the other species tested for selectivity except A. caroliniana were severely damaged or killed”. Also, in assay [5], the “small S. molesta plants dead” value is reported as over 80%, the “new growths induced (small plants)” value was “type I only”, the “fate of newly emerged type I plants” value is listed as “all newly emerged type I plants were killed” and the “type III S. molesta plants on the top layer of the dense mats killed or severely injured” value stood at 100%. Moreover, the “effect on growth of dihuang” value in assay [6] is on record as “inhibit some growth”.
Consider `O=C(O)c1ccc(O)cc1` [4-Hydroxybenzoic acid], for which, in assay [1], the “type of new growth” value is “type I only” and the “decrease of living biomass weight compared to the water control” value amounted to 85.5%. Besides, in assay [1] (2% concentration), the “S. molesta plants eliminated” value is recorded as 100%. The “Living Biomass (mean ± s.d.)” value in assay [1] (total concentration 0.5%) stood at 20.1 g. The “Living Biomass (mean ± s.d.)” value in assay [1] (total concentration 1.0%) is 4.3 g. In addition, in assay [1] (total concentration 1.5%), the “Living Biomass (mean ± s.d.)” value came out at 2.3 g. Besides, the “Living Biomass (mean ± s.d.)” value in assay [1] (total concentration 2.0%) came out at 0 g. Also, in assay [2] (10 μL of 1% solution per blade, lower surface, read-out: Inhibition (%) Lower leaf Application), the pest or weed control at 1 % came to 100%. Further, the pest or weed control at 1 % in assay [2] (10 μL of 1% solution per blade, upper surface, read-out: Inhibition (%) Upper leaf Application) was over 85%. In assay [3], the A. caroliniana eliminated was determined as 100%. Besides, in assay [4], the “damage to other species tested for selectivity” value is listed as “none of the other species tested for selectivity except A. caroliniana were severely damaged or killed”. Besides, in assay [5], the “small S. molesta plants dead” value was over 90%, the “new growths induced (small plants)” value is “type I only”, the “fate of newly emerged type I plants” value is “all newly emerged type I plants were killed” and the “type III S. molesta plants on the top layer of the dense mats killed or severely injured” value is on record as 100%. Also, the “effect on growth of dihuang” value in assay [6] was “inhibit some growth”.
